Values of other authors, collected in patent US7102020B2, “Total synthesis of daurichromenic acid” (priority 2002, dated 2006).

Tested on: HIV
Settings: acutely infected H9 cells

For `CC(C)=CCC/C(C)=C/CC[C@@]1(C)C=Cc2c(cc(C)c(C(=O)O)c2O)O1` [Daurichromenic acid], the “anti-HIV activity EC50” value is given as 5.67 ng/mL.
